# Source: US20210386367A1, “DEVICES AND SYSTEMS FOR GASTROINTESTINAL MICROBIOME DETECTION AND MANIPULATION” (Progenity, Inc., priority 2018, published 2021)
# Where “and” joins values, the source holds several entries; their conditions need not be identical. Equal values may be shown once. Read-outs that look alike come from different tables or passages of the source.
# Legend:
# [1] = test system: Veillonella spp. clinical isolates; test: MIC distribution against clinical isolates; type: cell-based
# Source text: (n=19 V. parvula, n=9 Veillonella spp., n=1 Veillonella dispr., n=1 V. atypica) clinical isolates (μg/mL).
# As used herein, “minimum inhibitory concentration” or “MIC” refers to the lowest concentration of an antimicrobial agent, for example, an antimicrobial agent as described herein, required to inhibit the growth of an organism. […] “MIC90” represents the MIC value at which ≥90% of the strains within a test population are inhibited; the 90th percentile.
# Many susceptibility testing methods are known in the art and can be used as described herein (see, e.g., Jorgensen and Ferraro (2009) Clinical Infectious Diseases 49:1749-1755; and Maurer et al. (2017) Infectious Disease Reports 9:6839; the entire contents of each of the foregoing are incorporated herein by reference). For example, antimicrobial susceptibility can be determined using conventional culture based methods such as the broth or agar dilution test. In these dilution tests, the bacterial isolate of interest is inoculated onto different media that include serial dilutions of an antimicrobial agent, and incubated under appropriate conditions (e.g., overnight at 37° C.) to allow for growth to occur. Following the incubation period, the media is examined to determine bacterial growth. The lowest concentration of antibiotic that prevents growth represents the minimal inhibitory concentration (MIC). Broth dilution tests can be miniaturized and mechanized allowing for reproducibility and high throughput.
# E. coli MMX 1312 = test: Time-kill assay; type: cell-based, Escherichia coli; conditions: for time-kill kinetics outcome (bactericidal = ≥3 log reduction in CFU per mL): 2×, 4×, 8× MIC, 2, 6, 24 hr
# [2] = test system: E. coli, Streptococcus spp., and Bacteroides spp. isolates; type: cell-based; conditions: for MPC values: across the evaluated isolates
# Procedure: Initial values of the MIC were determined by agar dilution in accordance with guidelines from the Clinical and Laboratory Standards Institute (CLSI; (1) “Methods for Dilution Antimicrobial Susceptibility Tests for Bacteria That Grow Aerobically; Approved Standard; 11th ed.,” CLSI standard M07, 2018; (2) “Methods for Antimicrobial Susceptibility Testing of Anaerobic Bacteria; Approved Standard—Eighth Edition,” CLSI document M11-A8, 2012.).
# If there were no colonies on the antibiotic selection plates, the spontaneous mutation frequency was reported as less than the frequency observed with one colony to indicate that the spontaneous mutation frequency was less than the limit of detection (one CFU). […] The mutation prevention concentration (MPC) was reported as the lowest concentration for which no mutants were selected.
# [3] = test system: Bacteroides fragilis clinical isolates; test: MIC distribution against clinical isolates; type: cell-based
# In short: (§1)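 MIC is the lowest agent concentration preventing growth, determined by broth or agar dilution with serial compound dilutions and incubation under appropriate conditions (e.g., overnight at 37° C.). MIC90 is the concentration inhibiting ≥90% of isolates in the test population.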
# [4] = test system: Streptococcus agalactiae clinical isolates; test: MIC distribution against clinical isolates; type: cell-based
# In short: as §1
# [5] = MIC 0.5 μg/mL, 30 Veillonella spp. isolates
# [6] = MIC 1 μg/mL, 30 Veillonella spp. isolates
# [7] = MIC 2 μg/mL, 30 Veillonella spp. isolates
# [8] = MIC 4 μg/mL, 30 Veillonella spp. isolates
# [9] = MIC 8 μg/mL, 30 Veillonella spp. isolates
# [10] = MIC 1 μg/mL, 30 B. fragilis isolates
# [11] = MIC 8 μg/mL, 30 B. fragilis isolates
# [12] = MIC >8 μg/mL, 30 B. fragilis isolates
# [13] = MIC 0.015 μg/mL, 20 S. agalactiae isolates
# [14] = MIC 0.03 μg/mL, 20 S. agalactiae isolates
# [15] = MIC 0.06 μg/mL, 20 S. agalactiae isolates
# [16] = MIC 1 μg/mL, 20 S. agalactiae isolates
# [17] = MIC 16 μg/mL, 30 Veillonella spp. isolates
# [18] = MIC 32 μg/mL, 30 Veillonella spp. isolates
# [19] = MIC 16 μg/mL, 30 B. fragilis isolates
# [20] = MIC 32 μg/mL, 30 B. fragilis isolates
# [21] = MIC 64 μg/mL, 30 B. fragilis isolates
# [22] = MIC […], 20 S. agalactiae isolates
# [23] = MIC >32 μg/mL, 30 B. fragilis isolates
# [24] = MIC >32 μg/mL, 30 Veillonella spp. isolates
# [25] = MIC 0.5 μg/mL, 30 B. fragilis isolates
# [26] = MIC 2 μg/mL, 30 B. fragilis isolates
# [27] = MIC […], 30 B. fragilis isolates
Structure (SMILES),"Cumulative percentage of isolates inhibited at MIC [1, 5]","Number of test isolates at MIC [1, 5]","Cumulative percentage of isolates inhibited at MIC [1, 6]","Number of test isolates at MIC [1, 6]","Cumulative percentage of isolates inhibited at MIC [1, 7]","Number of test isolates at MIC [1, 7]","Cumulative percentage of isolates inhibited at MIC [1, 8]","Number of test isolates at MIC [1, 8]","Cumulative percentage of isolates inhibited at MIC [1, 9]","Number of test isolates at MIC [1, 9]",time-kill kinetics outcome (bactericidal = ≥3 log reduction in CFU per mL) (E. coli MMX 1312),MPC values [2],"Cumulative percentage of isolates inhibited at MIC [3, 10]","Number of test isolates at MIC [3, 10]","Cumulative percentage of isolates inhibited at MIC [3, 11]","Number of test isolates at MIC [3, 11]","Cumulative percentage of isolates inhibited at MIC [4, 14]","Number of test isolates at MIC [4, 14]","Cumulative percentage of isolates inhibited at MIC [4, 15]","Number of test isolates at MIC [4, 15]",also measured
C[C@@H](O)[C@H]1C(=O)N2C(C(=O)O)=C(S[C@@H]3CN[C@H](C(=O)N(C)C)C3)[C@H](C)[C@H]12 [meropenem],43.3%,2,53.3%,3,70.0%,5,76.7%,2,100.0%,7,regrowth was observed at 24 hr for all concentrations,equivalent to 4× the MIC,80.0%,4,83.3%,1,95.0%,15,100.0%,1,"CFU decrease (E. coli MMX 1312; 8×MIC, 6 hr timepoint): 3 log10 CFU; propensity for spontaneous resistance ([2]; SIBO pathogens in vitro): little propensity for resistance to develop spontaneously; Cumulative percentage of isolates inhibited at MIC [3, 12]: 100.0%; Number of test isolates at MIC [3, 12]: 5; Cumulative percentage of isolates inhibited at MIC [4, 13]: 20.0%; Number of test isolates at MIC [4, 13]: 4"
"CN[C@H](CC(C)C)C(=O)N[C@H]1C(=O)N[C@@H](CC(N)=O)C(=O)N[C@H]2C(=O)N[C@H]3C(=O)N[C@H](C(=O)N[C@H](C(=O)O)c4cc(O)cc(O)c4-c4cc3ccc4O)[C@H](O)c3ccc(c(Cl)c3)Oc3cc2cc(c3O[C@@H]2O[C@H](CO)[C@@H](O)[C@H](O)[C@H]2O[C@H]2C[C@](C)(N)[C@H](O)[C@H](C)O2)Oc2ccc(cc2Cl)[C@H]1O [vancomycin, Vancomycin]",–,–,–,–,–,–,–,–,–,–,–,–,–,–,–,–,–,–,–,–,"Cumulative percentage of isolates inhibited at MIC [4, 16]: 100.0%; Number of test isolates at MIC [4, 16]: 1"
CO/N=C(\C(=O)N[C@@H]1C(=O)N2C(C(=O)O)=C(CSc3nc(=O)c(=O)[nH]n3C)CS[C@H]12)c1csc(N)n1 [ceftriaxone],10.0%,3,23.3%,4,26.7%,1,30.0%,1,40.0%,3,killing at 6 and 24 hr that approached 3-logs,–,–,–,10.0%,3,25.0%,5,90.0%,1.3,"Cumulative percentage of isolates inhibited at MIC [1]: 100.0%; Number of test isolates at MIC [1]: 1; Cumulative percentage of isolates inhibited at MIC [1, 17]: 86.7%; Number of test isolates at MIC [1, 17]: 14; Cumulative percentage of isolates inhibited at MIC [1, 18]: 96.7%; Number of test isolates at MIC [1, 18]: 3; overall MPC values ([2]; remaining isolates (E. coli, Streptococcus spp.)): 0.12 to 0.25 µg/mL; Cumulative percentage of isolates inhibited at MIC [3, 19]: 40.0%; Number of test isolates at MIC [3, 19]: 9; Cumulative percentage of isolates inhibited at MIC [3, 20]: 66.7%; Number of test isolates at MIC [3, 20]: 8; Cumulative percentage of isolates inhibited at MIC [3, 21]: 73.3%; Number of test isolates at MIC [3, 21]: 2; Cumulative percentage of isolates inhibited at MIC ([3]; listed as CTR): 76.7% and 100.0%; Cumulative percentage of isolates inhibited at MIC [4, 22]: 100.0%; Number of test isolates at MIC [4, 22]: 2"
CO[C@H]1/C=C/O[C@@]2(C)Oc3c(C)c(O)c4c(O)c(c5c(nc6cc(C)ccn65)c4c3C2=O)NC(=O)/C(C)=C\C=C\[C@H](C)[C@H](O)[C@@H](C)[C@@H](O)[C@@H](C)[C@H](OC(C)=O)[C@@H]1C [rifaximin],–,–,10.0%,1,–,–,–,–,93.3%,7,Regrowth was also observed for all concentrations,In no instance was an MPC able to be reported,–,1,–,–,–,–,–,–,"Cumulative percentage of isolates inhibited at MIC [3, 23]: 100.0%; Number of test isolates at MIC [3, 23]: 1; Cumulative percentage of isolates inhibited at MIC ([4]; listed as RFX): 75.0% and 100.0%"
Cc1ncc([N+](=O)[O-])n1CCO [MTZ],–,–,3.3%,1,33.3%,9,83.3%,15,–,–,–,–,76.7%,14,–,–,–,–,–,–,"Cumulative percentage of isolates inhibited at MIC [1, 24]: 100.0%; Number of test isolates at MIC [1, 24]: 5; Cumulative percentage of isolates inhibited at MIC [3, 25]: 30.0%; Number of test isolates at MIC [3, 25]: 7; Cumulative percentage of isolates inhibited at MIC [3, 26]: 100.0%; Number of test isolates at MIC [3, 26]: 7; Cumulative percentage of isolates inhibited at MIC [3, 27]: 6.7%; Number of test isolates at MIC [3, 27]: 2"
COc1c(N2C[C@@H]3CCCN[C@@H]3C2)c(F)cc2c(=O)c(C(=O)O)cn(C3CC3)c12 [moxifloxacin],–,–,–,–,–,–,–,–,–,–,–,–,–,–,–,–,–,–,15.0%,3,–
